Measured values: ChEMBL document CHEMBL3745645, “Synthesis, in vitro antitumor activity, dihydrofolate reductase inhibition, DNA intercalation and structure-activity relationship studies of 1,3,5-triazine analogues” (Bioorg Med Chem Lett, 2016)
Activity calls are given as the source filed them. The rule behind the calls is not given here.

Tests used:
Type in all cases: functional
[1] = Cytotoxicity against human IGROV1 cells at 10 uM after 48 hrs by SRB assay; details: IGROV-1, 48 h, read-out: GI
[2] = Cytotoxicity against human Caki1 cells at 10 uM after 48 hrs by SRB assay; details: CAKI-1, 48 h, read-out: GI
SK-MEL-2 = experiment: Cytotoxicity against human SK-MEL-2 cells at 10 uM after 48 hrs by SRB assay
[3] = Cytotoxicity against human MOLT4 cells at 10 uM after 48 hrs by SRB assay; details: MOLT-4, 48 h, read-out: GI
MDA-MB-468 = experiment: Cytotoxicity against human MDA-MB-468 cells at 10 uM after 48 hrs by SRB assay; details: MDA-MB-468, 48 h, read-out: GI
[4] = Cytotoxicity against human SF295 cells at 10 uM after 48 hrs by SRB assay; details: SF-295, 48 h, read-out: GI
T47D = experiment: Cytotoxicity against human T47D cells at 10 uM after 48 hrs by SRB assay; details: read-out: GI
RXF 393 = experiment: Cytotoxicity against human RXF393 cells at 10 uM after 48 hrs by SRB assay
SK-MEL-5 = experiment: Cytotoxicity against human SK-MEL-5 cells at 10 uM after 48 hrs by SRB assay; details: SK-MEL-5, 48 h, read-out: GI
[5] = Cytotoxicity against human LOXIMVI cells at 10 uM after 48 hrs by SRB assay; details: LOX IMVI, read-out: GI
HL-60(TB) = experiment: Cytotoxicity against human HL-60(TB) cells at 10 uM after 48 hrs by SRB assay
ACHN = experiment: Cytotoxicity against human ACHN cells at 10 uM after 48 hrs by SRB assay; details: read-out: GI
[6] = Cytotoxicity against human SF268 cells at 10 uM after 48 hrs by SRB assay; details: SF-268, 48 h, read-out: GI
SR = experiment: Cytotoxicity against human SR cells at 10 uM after 48 hrs by SRB assay; details: read-out: GI
[7] = Cytotoxicity against human UACC257 cells at 10 uM after 48 hrs by SRB assay; details: UACC-257, 48 h, read-out: GI
DU-145 = experiment: Cytotoxicity against human DU145 cells at 10 uM after 48 hrs by SRB assay
[8] = Cytotoxicity against human HOP62 cells at 10 uM after 48 hrs by SRB assay; details: HOP-62, 48 h, read-out: GI
[9] = Cytotoxicity against human BT549 cells at 10 uM after 48 hrs by SRB assay; details: BT-549, 48 h, read-out: GI
NCI-H460 = experiment: Cytotoxicity against human NCI-H460 cells at 10 uM after 48 hrs by SRB assay
Malme-3M = experiment: Cytotoxicity against human MALME-3M cells at 10 uM after 48 hrs by SRB assay
[10] = Cytotoxicity against human HCT15 cells at 10 uM after 48 hrs by SRB assay; details: HCT-15, 48 h, read-out: GI
TK-10 = experiment: Cytotoxicity against human TK10 cells at 10 uM after 48 hrs by SRB assay
SK-OV-3 = experiment: Cytotoxicity against human SKOV3 cells at 10 uM after 48 hrs by SRB assay
[11] = Cytotoxicity against human COLO205 cells at 10 uM after 48 hrs by SRB assay; details: COLO 205, 48 h, read-out: GI
KM12 = experiment: Cytotoxicity against human KM12 cells at 10 uM after 48 hrs by SRB assay
MCF7 = experiment: Cytotoxicity against human MCF7 cells at 10 uM after 48 hrs by SRB assay; details: MCF7, 48 h, read-out: GI
[12] = Cytotoxicity against human RPMI8226 cells at 10 uM after 48 hrs by SRB assay; details: RPMI-8226, 48 h, read-out: GI
M14 = experiment: Cytotoxicity against human M14 cells at 10 uM after 48 hrs by SRB assay
[13] = Cytotoxicity against human NCI-ADR-RES cells at 10 uM after 48 hrs by SRB assay; details: read-out: GI
[14] = Cytotoxicity against human UACC62 cells at 10 uM after 48 hrs by SRB assay; details: UACC-62, 48 h, read-out: GI
A549 = experiment: Cytotoxicity against human A549 cells at 10 uM after 48 hrs by SRB assay; details: A549, 48 h, read-out: GI
SN12C = experiment: Cytotoxicity against human SN12C cells at 10 uM after 48 hrs by SRB assay; details: read-out: GI
[15] = Cytotoxicity against human SF539 cells at 10 uM after 48 hrs by SRB assay; details: SF-539, 48 h, read-out: GI
[16] = Cytotoxicity against human Hs 578T cells at 10 uM after 48 hrs by SRB assay; details: read-out: GI
[17] = Cytotoxicity against human OVCAR5 cells at 10 uM after 48 hrs by SRB assay; details: OVCAR-5, 48 h, read-out: GI
NCI-H226 = experiment: Cytotoxicity against human NCI-H226 cells at 10 uM after 48 hrs by SRB assay; details: NCI-H226, 48 h, read-out: GI
SK-MEL-28 = experiment: Cytotoxicity against human SK-MEL-28 cells at 10 uM after 48 hrs by SRB assay
[18] = Cytotoxicity against human SNB75 cells at 10 uM after 48 hrs by SRB assay; details: SNB-75, 48 h, read-out: GI
HCC 2998 = experiment: Cytotoxicity against human HCC2998 cells at 10 uM after 48 hrs by SRB assay
CCRF-CEM = experiment: Cytotoxicity against human CCRF-CEM cells at 10 uM after 48 hrs by SRB assay; details: read-out: GI
A498 = experiment: Cytotoxicity against human A498 cells at 10 uM after 48 hrs by SRB assay; details: A498, 48 h, read-out: GI
[19] = Cytotoxicity against human HCT116 cells at 10 uM after 48 hrs by SRB assay; details: HCT-116, 48 h, read-out: GI
[20] = Cytotoxicity against human OVCAR3 cells at 10 uM after 48 hrs by SRB assay; details: OVCAR-3, 48 h, read-out: GI
NCI-H522 = experiment: Cytotoxicity against human NCI-H522 cells at 10 uM after 48 hrs by SRB assay; details: NCI-H522, 48 h, read-out: GI
U-251 = experiment: Cytotoxicity against human U251 cells at 10 uM after 48 hrs by SRB assay
[21] = Cytotoxicity against human SW620 cells at 10 uM after 48 hrs by SRB assay; details: SW-620, 48 h, read-out: GI
K562 = experiment: Cytotoxicity against human K562 cells at 10 uM after 48 hrs by SRB assay; details: K562, 48 h, read-out: GI
[22] = Cytotoxicity against human UO31 cells at 10 uM after 48 hrs by SRB assay; details: UO-31, 48 h, read-out: GI
[23] = Cytotoxicity against human OVCAR4 cells at 10 uM after 48 hrs by SRB assay; details: OVCAR-4, 48 h, read-out: GI
HT-29 = experiment: Cytotoxicity against human HT-29 cells at 10 uM after 48 hrs by SRB assay; details: HT-29, 48 h, read-out: GI
[24] = Cytotoxicity against human OVCAR8 cells at 10 uM after 48 hrs by SRB assay; details: OVCAR-8, 48 h, read-out: GI
[25] = Cytotoxicity against human SNB19 cells at 10 uM after 48 hrs by SRB assay; details: SNB-19, 48 h, read-out: GI
MDA-MB-231 = experiment: Cytotoxicity against human MDA-MB-231 cells at 10 uM after 48 hrs by SRB assay; details: MDA-MB-231, 48 h, read-out: GI
[26] = Cytotoxicity against human PC3 cells at 10 uM after 48 hrs by SRB assay; details: PC-3, 48 h, read-out: GI
786-0 = experiment: Cytotoxicity against human 786-0 cells at 10 uM after 48 hrs by SRB assay; details: 786-0, 48 h, read-out: GI
MDA-MB-435 = experiment: Cytotoxicity against human MDA-MB-435 cells at 10 uM after 48 hrs by SRB assay; details: MDA-MB-435, 48 h, read-out: GI
[27] = Cytotoxicity against human HOP92 cells at 10 uM after 48 hrs by SRB assay; details: HOP-92, 48 h, read-out: GI

SMILES: Cc1nc2cc(Nc3nc(Nc4ccc(F)cc4)nc(Nc4ccc(F)cc4)n3)ccc2n1Cc1ccccc1
- inhibition of growth at 10 µM [1]: 16.9%
- inhibition of growth at 10 µM [2]: 10.1%
- growth inhibition (GI) (SK-MEL-2): inactive
- inhibition of growth at 10 µM [3]: 15.2%
- inhibition of growth at 10 µM (MDA-MB-468): 9.45%
- inhibition of growth at 10 µM [4]: 8.21%
- inhibition of growth at 10 µM (T47D): 10.7%
- growth inhibition (GI) (RXF 393): inactive
- inhibition of growth at 10 µM (SK-MEL-5): 1.09%
- inhibition of growth at 10 µM [5]: 7.8%
- growth inhibition (GI) (HL-60(TB)): inactive
- inhibition of growth at 10 µM (ACHN): 7.88%
- inhibition of growth at 10 µM [6]: 3.68%
- inhibition of growth at 10 µM (SR): 18.6%
- inhibition of growth at 10 µM [7]: 3.11%
- growth inhibition (GI) (DU-145): inactive
- inhibition of growth at 10 µM [8]: 8.91%
- inhibition of growth at 10 µM [9]: 5.26%
- growth inhibition (GI) (NCI-H460): inactive
- growth inhibition (GI) (Malme-3M): inactive
- inhibition of growth at 10 µM [10]: 10.8%
- growth inhibition (GI) (TK-10): inactive
- growth inhibition (GI) (SK-OV-3): inactive
- inhibition of growth at 10 µM [11]: 2.84%
- growth inhibition (GI) (KM12): inactive
- inhibition of growth at 10 µM (MCF7): 11.5%
- inhibition of growth at 10 µM [12]: 14.3%
- growth inhibition (GI) (M14): inactive
- inhibition of growth at 10 µM [13]: 10.6%
- inhibition of growth at 10 µM [14]: 10.2%
- inhibition of growth at 10 µM (A549): 8.48%
- inhibition of growth at 10 µM (SN12C): 5.75%
- inhibition of growth at 10 µM [15]: 10.4%
- inhibition of growth at 10 µM [16]: 10.4%
- inhibition of growth at 10 µM [17]: 4.24%
- inhibition of growth at 10 µM (NCI-H226): 13.8%
- growth inhibition (GI) (SK-MEL-28): inactive
- inhibition of growth at 10 µM [18]: 24.8%
- growth inhibition (GI) (HCC 2998): inactive
- inhibition of growth at 10 µM (CCRF-CEM): 10.6%
- inhibition of growth at 10 µM (A498): 21.9%
- inhibition of growth at 10 µM [19]: 12.2%
- inhibition of growth at 10 µM [20]: 4.79%
- inhibition of growth at 10 µM (NCI-H522): 14.2%
- growth inhibition (GI) (U-251): inactive
- inhibition of growth at 10 µM [21]: 3.96%
- inhibition of growth at 10 µM (K562): 18.6%
- inhibition of growth at 10 µM [22]: 39.3%
- inhibition of growth at 10 µM [23]: 14.4%
- inhibition of growth at 10 µM (HT-29): 1.3%
- inhibition of growth at 10 µM [24]: 9.21%
- inhibition of growth at 10 µM [25]: 3.99%
- inhibition of growth at 10 µM (MDA-MB-231): 24.5%
- inhibition of growth at 10 µM [26]: 23.2%
- inhibition of growth at 10 µM (786-0): 13.2%
- inhibition of growth at 10 µM (MDA-MB-435): 0.94%
- inhibition of growth at 10 µM [27]: 37.6%
